From patent US10058097B2, “Methods to increase corn productivity” (Valent BioSciences Corporation, priority 2016, dated 2018)

Key:
Type in all cases: in vivo
corn plants [1] = experiment: Chilling stress study (10° C. for five days) after spray with GA3 or GB; settings: chilling stress at 10° C. for five days; GA3 120 mg/liter, GB 3000 mg/liter; n = 7 plants
Method: In stress studies, plants were subjected to various stresses. In cold stress studies, after spraying, plants were grown in the greenhouse for an additional 48 hours before being measured and moved to a CMP6050 CONVIRON® chamber kept at 10° C. (Conviron is a registered trademark of Controlled Environments Limited Corporation). Illumination was at ˜225 μMoles, and light:dark conditions were on a 12:12 hour photoperiod. After 120 hours of chilling, plants were removed from the cold, measured, and returned to the greenhouse for 48 hours prior to harvest.
(§1) Synergy was determined using the following formula, in which a synergy factor is calculated by the Abbott method: % Cexp=A+B−(AB/100), here % Cexp is the expected efficacy and “in which A and B are the increase in growth (or resistance to stress) levels given by the single [plant growth regulators]. If the ratio between the experimentally observed efficacy of the mixture Cobs and the expected efficacy of the mixture is greater than 1, synergistic interactions are present in the mixture” (Gisi, Synergistic Interaction of Fungicides in Mixtures, The American Phytopathological Society, 86:11, 1273-1279, 1996).
In a greenhouse and growth room study conducted in Long Grove, Ill., corn plants of a commonly grown hybrid were subjected to the following stress regimen: at two days post-foliar application, plants were moved into a controlled environment chamber, where the temperature was maintained at 10° C. with a 12:12 hour photoperiod for five days. At the end of the chilling period, the corn was moved back to the greenhouse for two days before destructive harvest.

corn = experiment: Nutrient stress greenhouse study, GA3 and/or GB, 7 days; settings: GA3 120 mg/liter, GB 10,000 mg/liter; for Change in Height: n = 7 plants
Method: as §1
During rainy periods in March-May in the Midwestern United States, nitrogen fertilizer for corn is often limited due to a combination of leaching and mineralization. GB included with GA3 can help overcome the slow growth caused by low nutrients. In a greenhouse study in Long Grove, Ill. we evaluated the effect of GA3, GB and the combination under ‘normal nutrient’ and limited nutrient conditions.

corn plants [2] = experiment: Field study Colby, KS 2015, yield; settings: GA3 120 mg/liter, GB 10000 mg/liter, (S)-ABA 9 mg/liter
Source text: In a field study conducted in Colby, Kans., corn plants were sprayed with solutions containing a non-ionic surfactant (0.25%, v/v) at 15 gallons of spray solution per acre.

potted corn plants [3] = experiment: Chronic drought stress greenhouse study, potted corn, 14 days; settings: 20 Percent Volumetric Water Content, 120 mg/liter GA3, 3000 mg/liter GB, n = 5
Method: In drought stress studies, corn plants were sprayed at the V4 stage with solutions containing a non-ionic surfactant (0.25%, v/v) at 30 gallons of spray solution/acre and growth was determined by change in height from time of treatment or fresh and dry shoot weight measurements 14 days later.
In greenhouse drought stress studies, corn plants were treated and subsequently watered with an automated irrigation system that maintained the soil moisture in the pots at 45% or 20% volumetric water content (“VWC”). Plants set to 20% after treatment took about 4 days without the automated system adding water to those pots to reach 20% VWC and then the automated system added water as needed to maintain 20% VWC. Total soil moisture capacity was 45% VWC and 20% VWC represented drought stress conditions. This would be considered chronic stress, as a lower level of VWC was maintained throughout the experiment after treatment.

greenhouse-grown maize [4] = experiment: Greenhouse study: effect of GA3 + GB dose on growth, seven days; settings: GA3 120 mg/liter, GB 0 mg/liter; spray at V3; n = 7 plants
Method: (§2) In several of the following examples, corn was grown in greenhouse conditions, which are defined as follows. Seeds of a commercial hybrid variety were sown in Pro-Mix® BX (Pro-Mix is a registered trademark of Premier Horticulture Ltd.) with the addition of Osmocote (14-14-14) and gypsum in three-liter pots. Greenhouses were kept at 25±3° C. under a 16:8 hour photoperiod, with illumination at canopy level of ˜250 μmoles m^−2s^−1. Corn was typically fertigated with Peters 21-5-20+micronutrients, calcium ammonium nitrate and magnesium sulfate. Typical growth rates for corn under these conditions ranged from 4-5 cm/day.
(§3) In most greenhouse studies, spray applications were made. These applications were made in a track sprayer outfitted with a 4001E Teejet® nozzle (Teejet is available from and a registered trademark of Spraying Systems Co., Glendale Heights, Ill., USA) and applied at 40 psi. Although application volumes did vary between some studies, generally, 30 gallons/acre of spray solution was applied. Following spray applications, plants were returned to the greenhouse. Typically, experiments were blocked according to plant size, and a randomized complete block design (RCB) was used.
In a greenhouse study, plants were sprayed at V3 stage with solutions containing a non-ionic surfactant (0.25%, v/v) at 30 gallons of spray solution/acre and growth was followed for seven days.

greenhouse-grown maize [5] = experiment: Greenhouse study: effect of GA3 dose +/- GB on growth, 7 and 14 days; settings: without or with GB 10000 mg/liter
Method: as §2, §3, §1
In a separate study, the effect of one rate of GB on various doses of GA3 was studied.

potted corn plants [6] = experiment: Acute drought stress greenhouse study, potted corn, 7 and 14 days
Method: In a separate acute drought stress greenhouse study conducted in Long Grove, Ill., corn plants were sprayed at V4 stage with solutions containing a non-ionic surfactant (0.25%, v/v) at 30 gallons of spray solution/acre and growth was determined by shoot height increase 7 and 14 days later. After treatment corn plants were not watered with the exception of one treatment of control (aqueous surfactant solution) that were watered as needed (well-watered control).

[7] = acute drought stressed, 120 ppm GA3, 3000 ppm GB, spray at V4

Compound: C=C1C[C@]23C[C@@]1(O)CC[C@H]2[C@@]12C=C[C@H](O)[C@@](C)(C(=O)O1)[C@H]2[C@@H]3C(=O)O [GA3, gibberellic acid]
- Growth Rate (corn plants [1]): 2.38 cm/day
- Growth over 9 days (corn plants [1]): 21.43 cm
- Leaf Area of L1-L5 (corn plants [1]): 324.24 cm^2
- Dry Weight (corn; Low Nutrients): 2.50 g
- Leaf Area (L1-L6) (corn; Low Nutrients): 588.66 cm^2
- Change in Height (corn; Low Nutrients): 30.34 cm
- Dry Weight (corn; Normal Nutrients): 2.86 g
- Leaf Area (L1-L6) (corn; Normal Nutrients): 629.45 cm^2
- Change in Height (corn; Normal Nutrients): 38.83 cm
- Yield (corn plants [2]): 188.9 bu/acre
- Percent Dry Weight of Drought Stressed Control (potted corn plants [3]): 103.32%
- Percent Fresh Weight of Drought Stressed Control (potted corn plants [3]): 106.11%
- Growth Rate (greenhouse-grown maize [4]): 4.86 cm/day
- Plant Growth over 7 days (greenhouse-grown maize [4]): 34.01 cm
- Growth Rate, 0-7 day(s) (greenhouse-grown maize [5]; GA3 30 mg/liter): 3.17 cm/day
- Growth Rate, 0-14 day(s) (greenhouse-grown maize [5]; GA3 30 mg/liter): 6.82 cm/day
- Plant Growth over 7 days (greenhouse-grown maize [5]; GA3 30 mg/liter): 22.2 cm
- Plant Growth over 14 days (greenhouse-grown maize [5]; GA3 30 mg/liter): 47.8 cm
- Growth Rate, 0-7 day(s) (greenhouse-grown maize [5]; GA3 60 mg/liter): 3.57 cm/day
- Growth Rate, 0-14 day(s) (greenhouse-grown maize [5]; GA3 60 mg/liter): 7.24 cm/day
- Plant Growth over 7 days (greenhouse-grown maize [5]; GA3 60 mg/liter): 25.0 cm
- Plant Growth over 14 days (greenhouse-grown maize [5]; GA3 60 mg/liter): 50.7 cm
- Growth Rate, 0-7 day(s) (greenhouse-grown maize [5]; GA3 120 mg/liter): 3.91 cm/day
- Growth Rate, 0-14 day(s) (greenhouse-grown maize [5]; GA3 120 mg/liter): 7.35 cm/day
- Plant Growth over 7 days (greenhouse-grown maize [5]; GA3 120 mg/liter): 27.3 cm
- Plant Growth over 14 days (greenhouse-grown maize [5]; GA3 120 mg/liter): 51.4 cm
- Growth Rate, 0-7 day(s) (greenhouse-grown maize [5]; GA3 240 mg/liter): 4.25 cm/day
- Growth Rate, 0-14 day(s) (greenhouse-grown maize [5]; GA3 240 mg/liter): 7.94 cm/day
- Plant Growth over 7 days (greenhouse-grown maize [5]; GA3 240 mg/liter): 29.8 cm
- Plant Growth over 14 days (greenhouse-grown maize [5]; GA3 240 mg/liter): 55.6 cm
- Shoot Growth 7 days after treatment as Percent Increase as compared to Drought Stressed Control (potted corn plants [6]; [7]): 116.9%
- Shoot Growth 14 days after treatment as Percent Increase as compared to Drought Stressed Control (potted corn plants [6]; [7]): 118.7%
- increased growth under drought as compared to controls (potted corn plants [6]; at 7 days): 16.9%
- increased growth under drought as compared to controls (potted corn plants [6]; at 14 days): 18.7%
